# Literature values in patent US6395296B1, “Soluble double metal salt of group IA and IIA of hydroxycitric acid, process of preparing the same and its use in beverages and other food products without effecting their flavor and properties” (priority 1997, dated 2002).
# Key:
# [1] = test system: conversion of excess carbohydrates to fat; settings: in animals; established by several scientists including at Hoffman-La Roche
# [2] = test system: ATP dependent citrate-lyase; settings: key enzyme in diverting carbohydrate to fatty acids and cholesterol synthesis; Sullivan et al., Sergio
smiles,measurement,setting,value
"O=C(O)CC(O)(C(=O)O)C(O)C(=O)O (single isomer, unassigned; (-)) [HCA, (−) Hydroxycitric acid]",conversion of excess carbohydrates to fat,[1],prevents the conversion of excess carbohydrates to fat
same,inhibition of ATP dependent citrate-lyase,[2],inhibit
